Results published in ChEMBL document CHEMBL2417394, “Exquisite selectivity for human toll-like receptor 8 in substituted furo[2,3-c]quinolines” (J Med Chem, 2013).
Each block holds one molecule with its values, some of them ahead of it. The source made the active and inactive calls. The calls are words filed in the database; no cut-off is given here.

Assays:
[1] = target: T1, Toll-like receptor 8 (Homo sapiens) (UniProt Q9NR97); assay: Agonist activity at TLR8 in human PBMC assessed as increase of MIP1alpha level after 12 hrs
T1 sequence (whole entry): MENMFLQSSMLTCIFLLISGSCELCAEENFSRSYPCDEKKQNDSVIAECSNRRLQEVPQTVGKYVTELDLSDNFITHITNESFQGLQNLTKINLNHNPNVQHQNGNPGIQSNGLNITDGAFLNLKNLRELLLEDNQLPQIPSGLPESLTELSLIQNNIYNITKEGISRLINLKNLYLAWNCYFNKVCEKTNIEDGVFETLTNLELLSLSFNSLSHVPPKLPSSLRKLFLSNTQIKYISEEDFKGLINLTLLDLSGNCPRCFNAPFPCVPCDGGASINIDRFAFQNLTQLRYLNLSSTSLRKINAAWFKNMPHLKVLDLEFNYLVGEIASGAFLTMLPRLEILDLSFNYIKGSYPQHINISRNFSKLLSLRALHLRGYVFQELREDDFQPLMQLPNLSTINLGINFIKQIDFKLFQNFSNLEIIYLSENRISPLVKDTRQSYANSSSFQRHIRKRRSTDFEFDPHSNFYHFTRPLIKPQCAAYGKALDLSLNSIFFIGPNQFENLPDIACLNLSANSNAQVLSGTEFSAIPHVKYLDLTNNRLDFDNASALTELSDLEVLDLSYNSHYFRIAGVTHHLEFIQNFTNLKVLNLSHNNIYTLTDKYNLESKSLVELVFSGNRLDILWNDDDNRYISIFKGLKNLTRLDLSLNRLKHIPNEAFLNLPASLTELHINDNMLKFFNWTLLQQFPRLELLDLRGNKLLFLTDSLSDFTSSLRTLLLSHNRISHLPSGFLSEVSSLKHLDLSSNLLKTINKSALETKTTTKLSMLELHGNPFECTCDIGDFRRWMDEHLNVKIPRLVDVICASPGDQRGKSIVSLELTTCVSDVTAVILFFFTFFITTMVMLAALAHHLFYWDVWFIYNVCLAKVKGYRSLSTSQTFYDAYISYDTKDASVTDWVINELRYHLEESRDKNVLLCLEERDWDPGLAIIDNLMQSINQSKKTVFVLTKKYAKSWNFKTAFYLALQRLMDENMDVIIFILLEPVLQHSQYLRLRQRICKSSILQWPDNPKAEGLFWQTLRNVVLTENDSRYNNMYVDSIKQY

[2] = target: T1, Toll-like receptor 8 (Homo sapiens); assay: Agonist activity at TLR8 in human PBMC assessed as increase of G-CSF level after 12 hrs
[3] = target: T1, Toll-like receptor 8 (Homo sapiens); assay: Agonist activity at TLR8 in human PBMC assessed as increase of MIP1beta level after 12 hrs
[4] = target: T1, Toll-like receptor 8 (Homo sapiens); assay: Agonist activity at TLR8 in human PBMC assessed as increase of GRO level after 12 hrs
[5] = target: T1, Toll-like receptor 8 (Homo sapiens); assay: Modulation of human TLR8 expressed in HEK293 cells co-transfected with MD2 and sAP assessed as induction of NF-kappaB activity by reporter gene assay; type: cell-based
[6] = target: T1, Toll-like receptor 8 (Homo sapiens); assay: Agonist activity at human TLR8 expressed in HEK293 cells co-transfected with MD2 and sAP assessed as induction of NF-kappaB activity by reporter gene assay; type: cell-based
[7] = target: T2, Toll-like receptor 9 (Homo sapiens) (UniProt Q9NR96); assay: Modulation of human TLR9 expressed in HEK293 cells co-transfected with MD2 and sAP assessed as induction of NF-kappaB activity by reporter gene assay; type: cell-based
T2 sequence (whole entry): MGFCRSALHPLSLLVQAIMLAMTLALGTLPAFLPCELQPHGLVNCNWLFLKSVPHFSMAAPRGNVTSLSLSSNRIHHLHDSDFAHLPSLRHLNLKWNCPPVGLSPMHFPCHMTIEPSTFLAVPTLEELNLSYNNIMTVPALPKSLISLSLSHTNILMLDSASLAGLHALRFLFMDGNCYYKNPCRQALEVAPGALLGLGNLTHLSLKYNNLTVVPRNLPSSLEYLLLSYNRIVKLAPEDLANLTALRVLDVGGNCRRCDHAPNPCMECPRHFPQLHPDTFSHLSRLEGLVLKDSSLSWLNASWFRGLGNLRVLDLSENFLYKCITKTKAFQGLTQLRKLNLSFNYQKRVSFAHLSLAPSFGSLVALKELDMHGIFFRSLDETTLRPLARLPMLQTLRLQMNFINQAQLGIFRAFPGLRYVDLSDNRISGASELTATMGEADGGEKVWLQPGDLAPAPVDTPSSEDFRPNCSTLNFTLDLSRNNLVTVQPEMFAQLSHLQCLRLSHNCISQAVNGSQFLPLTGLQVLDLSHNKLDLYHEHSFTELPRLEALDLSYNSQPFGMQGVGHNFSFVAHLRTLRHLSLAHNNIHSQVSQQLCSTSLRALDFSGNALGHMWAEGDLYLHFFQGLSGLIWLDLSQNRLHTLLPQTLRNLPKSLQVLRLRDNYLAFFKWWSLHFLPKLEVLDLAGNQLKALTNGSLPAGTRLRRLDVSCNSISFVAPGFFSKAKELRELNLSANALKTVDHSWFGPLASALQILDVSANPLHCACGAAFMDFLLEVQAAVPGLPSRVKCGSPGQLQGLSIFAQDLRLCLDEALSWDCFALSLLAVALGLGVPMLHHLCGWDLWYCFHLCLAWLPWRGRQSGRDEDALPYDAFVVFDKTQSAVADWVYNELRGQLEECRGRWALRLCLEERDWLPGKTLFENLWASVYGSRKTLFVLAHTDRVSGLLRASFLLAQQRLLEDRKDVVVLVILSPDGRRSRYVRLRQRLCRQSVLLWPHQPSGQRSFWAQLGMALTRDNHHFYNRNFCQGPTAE

[8] = target: T3, Nucleotide-binding oligomerization domain-containing protein 1 (Homo sapiens) (UniProt Q9Y239); assay: Modulation of NOD1 (unknown origin)
T3 sequence (whole entry): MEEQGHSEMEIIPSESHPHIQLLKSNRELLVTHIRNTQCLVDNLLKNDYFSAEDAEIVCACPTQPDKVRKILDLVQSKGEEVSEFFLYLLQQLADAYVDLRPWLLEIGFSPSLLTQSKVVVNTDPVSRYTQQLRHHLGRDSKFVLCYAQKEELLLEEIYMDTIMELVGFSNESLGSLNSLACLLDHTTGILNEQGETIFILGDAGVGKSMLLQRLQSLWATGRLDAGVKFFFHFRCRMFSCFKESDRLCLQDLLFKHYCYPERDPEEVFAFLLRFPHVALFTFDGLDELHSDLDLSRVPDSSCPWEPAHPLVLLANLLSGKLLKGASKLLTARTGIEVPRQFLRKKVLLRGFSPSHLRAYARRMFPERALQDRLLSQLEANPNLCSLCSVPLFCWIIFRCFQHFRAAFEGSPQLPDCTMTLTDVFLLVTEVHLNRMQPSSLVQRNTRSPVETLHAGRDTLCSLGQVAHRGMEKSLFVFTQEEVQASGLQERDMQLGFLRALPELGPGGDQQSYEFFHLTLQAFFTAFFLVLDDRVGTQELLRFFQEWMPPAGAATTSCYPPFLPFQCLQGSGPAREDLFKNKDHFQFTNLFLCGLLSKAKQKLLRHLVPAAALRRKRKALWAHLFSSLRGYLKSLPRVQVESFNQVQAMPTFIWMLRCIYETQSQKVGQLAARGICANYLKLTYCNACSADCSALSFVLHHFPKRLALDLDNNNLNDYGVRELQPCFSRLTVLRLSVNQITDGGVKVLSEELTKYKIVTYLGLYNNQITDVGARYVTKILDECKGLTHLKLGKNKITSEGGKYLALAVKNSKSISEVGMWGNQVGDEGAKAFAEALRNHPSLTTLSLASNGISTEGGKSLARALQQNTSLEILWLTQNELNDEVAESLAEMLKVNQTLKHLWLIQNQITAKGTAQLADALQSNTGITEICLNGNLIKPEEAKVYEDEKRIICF

[9] = target: Nucleotide-binding oligomerization domain-containing protein 2 (Homo sapiens) (UniProt Q9HC29); assay: Modulation of NOD2 (unknown origin)
Chain of Nucleotide-binding oligomerization domain-containing protein 2 (Homo sapiens) (Q9HC29 whole entry, the tested form may be a part): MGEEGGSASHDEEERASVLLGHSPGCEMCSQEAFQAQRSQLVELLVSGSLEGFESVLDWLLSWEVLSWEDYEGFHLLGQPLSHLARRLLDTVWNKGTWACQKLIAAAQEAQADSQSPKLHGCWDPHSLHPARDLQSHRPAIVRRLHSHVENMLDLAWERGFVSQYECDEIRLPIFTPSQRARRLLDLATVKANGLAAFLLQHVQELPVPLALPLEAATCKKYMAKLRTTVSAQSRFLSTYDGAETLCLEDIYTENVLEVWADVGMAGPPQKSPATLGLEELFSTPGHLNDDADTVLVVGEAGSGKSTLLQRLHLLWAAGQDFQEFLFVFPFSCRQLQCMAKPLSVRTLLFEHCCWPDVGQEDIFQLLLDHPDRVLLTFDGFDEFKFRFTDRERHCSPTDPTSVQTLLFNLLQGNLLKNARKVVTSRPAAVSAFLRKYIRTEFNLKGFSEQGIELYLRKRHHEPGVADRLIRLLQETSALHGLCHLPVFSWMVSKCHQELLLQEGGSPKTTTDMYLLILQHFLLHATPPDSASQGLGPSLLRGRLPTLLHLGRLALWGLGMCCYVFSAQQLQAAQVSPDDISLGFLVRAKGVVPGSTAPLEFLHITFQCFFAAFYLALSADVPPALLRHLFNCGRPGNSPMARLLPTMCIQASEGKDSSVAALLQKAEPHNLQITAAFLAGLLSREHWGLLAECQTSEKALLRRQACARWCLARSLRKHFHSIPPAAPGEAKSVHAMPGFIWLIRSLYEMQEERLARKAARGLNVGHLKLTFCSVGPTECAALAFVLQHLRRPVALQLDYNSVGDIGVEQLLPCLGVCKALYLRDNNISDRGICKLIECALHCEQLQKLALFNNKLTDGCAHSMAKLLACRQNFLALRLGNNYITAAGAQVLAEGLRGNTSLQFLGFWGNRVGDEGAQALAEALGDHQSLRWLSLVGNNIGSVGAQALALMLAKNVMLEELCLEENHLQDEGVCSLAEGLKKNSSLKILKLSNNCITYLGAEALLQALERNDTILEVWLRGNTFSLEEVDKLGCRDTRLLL

SMILES: CCCCCCc1cc2c(o1)c(N)nc1ccccc12
- Activity [5]: Active
- Activity [6]: Active

SMILES: CCCCc1cc2c(o1)c(N)nc1ccccc12
- Activity [7]: Active
- Activity [8]: Active
- Activity [9]: Active

SMILES: CCCCc1nc2c(N)nc3ccccc3c2n1Cc1ccccc1
- Activity [1]: inactive
- Activity [2]: inactive
- Activity [3]: inactive
- Activity [4]: inactive

SMILES: Nc1nc2ccccc2c2ccoc12
- Activity [6]: inactive

Now from value to molecule:

- Activity [1]: Active
- Activity [2]: Active
- Activity [3]: Active
- Activity [4]: Active
SMILES: CCCc1nc2c(N)nc3ccccc3c2s1

- Activity [5]: Active
- Activity [6]: Active
SMILES: Cc1cc2c(o1)c(N)nc1ccccc12

- Activity [5]: Active
- Activity [6]: Active
SMILES: CCCCCc1cc2c(o1)c(N)nc1ccccc12

- Activity [5]: Active
- Activity [6]: Active
SMILES: CCCc1cc2c(o1)c(N)nc1ccccc12
